Our source for the IC50 values is US20150051206A1, “COMPOUNDS AND COMPOSITIONS AS C-KIT KINASE INHIBITORS” (IRM LLC, priority 2011, published 2015).

The test has as its target T1, c-kit (Homo sapiens, UniProt P10721).
T1 construct: human Mo7e cells which endogenously express c-kit; endogenous in cells; host or cells: human Mo7e cells (promegakaryocytic leukemia line), stimulated with human recombinant SCF
Briefly: Mo7e cell proliferation assay (SCF dependent proliferation). Format: cell-based. To be noted: Mo7e cells stimulated with human recombinant SCF, 48 hours. On the procedure: Compounds of Formula (I) and Formula (II) provided herein were assayed to measure their capacity to inhibit c-kit and PDGFR kinases using the appropriate assay described below: c-Kit inhibition was evaluated using the Mo7e cell proliferation assay, and PDGFR inhibition was evaluated using the Rat A10 cell proliferation assay and the Human TG/HA-VSMC cell proliferation assay.
The compounds of Table 1 and Table 2 were tested for inhibition of SCF dependent proliferation using human Mo7e cells which endogenously express c-kit in a 384 well format. […] After 48 hours of incubation at 37° C., cell viability was measured by adding 25 uL of CellTiter Glo (Promega) to the cells and the luminescence was measured by a CLIPR CCD camera (Molecular Devices).
The IC50 value is given as that concentration of the test compound in question that provoke a response halfway between the baseline and maximum responses.

Where [1] appears, read: Table 2, 20% FBS instead of 1% FBS (values marked *).

SMILES strings stand for the structures.

T1 sequence (P10721 26-976): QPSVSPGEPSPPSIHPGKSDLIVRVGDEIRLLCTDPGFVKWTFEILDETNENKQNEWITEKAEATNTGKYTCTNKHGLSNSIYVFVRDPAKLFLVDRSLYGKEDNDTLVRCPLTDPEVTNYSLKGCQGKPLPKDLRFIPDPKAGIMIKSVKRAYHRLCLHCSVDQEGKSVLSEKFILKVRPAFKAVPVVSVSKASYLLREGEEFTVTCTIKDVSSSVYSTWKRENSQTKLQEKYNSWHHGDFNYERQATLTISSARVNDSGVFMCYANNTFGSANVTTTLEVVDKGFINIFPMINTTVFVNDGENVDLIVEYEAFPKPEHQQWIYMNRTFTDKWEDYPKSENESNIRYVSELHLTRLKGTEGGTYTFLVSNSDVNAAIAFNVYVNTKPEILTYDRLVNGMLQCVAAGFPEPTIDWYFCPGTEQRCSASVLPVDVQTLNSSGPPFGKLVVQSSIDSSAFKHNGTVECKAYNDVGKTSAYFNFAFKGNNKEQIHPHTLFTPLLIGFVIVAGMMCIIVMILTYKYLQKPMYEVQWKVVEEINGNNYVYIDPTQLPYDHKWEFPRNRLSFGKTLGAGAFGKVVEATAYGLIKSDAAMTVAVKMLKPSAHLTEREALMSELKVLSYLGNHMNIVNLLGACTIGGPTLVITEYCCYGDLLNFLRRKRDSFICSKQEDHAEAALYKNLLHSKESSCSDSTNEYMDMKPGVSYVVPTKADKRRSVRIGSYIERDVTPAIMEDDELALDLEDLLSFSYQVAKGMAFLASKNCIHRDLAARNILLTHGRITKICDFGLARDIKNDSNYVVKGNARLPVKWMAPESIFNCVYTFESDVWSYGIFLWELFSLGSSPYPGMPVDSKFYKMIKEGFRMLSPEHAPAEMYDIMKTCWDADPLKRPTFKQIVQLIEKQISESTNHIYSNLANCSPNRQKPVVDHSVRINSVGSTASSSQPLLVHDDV

In the case of `Cc1ccc(-c2noc(Cn3cnnn3)n2)cc1NC(=O)c1cnc2ccccn12` [F59, N-{2-methyl-5-[5-(1H-1,2,3,4-tetrazol-1-ylmethyl)-1,2,4-oxadiazol-3-yl]phenyl}imidazo[1,2-a]pyridine-3-carboxamide], for the setting “Table 2, 1% FBS”, the half-maximal inhibitory concentration (IC50) amounted to 646 nM.
As for `Cc1ccc(-c2nc(Cc3ccccc3F)no2)cc1NC(=O)c1cnc2ccccn12` [F9, N-(5-{3-[(2-fluorophenyl)methyl]-1,2,4-oxadiazol-5-yl}-2-methylphenyl)imidazo[1,2-a]pyridine-3-carboxamide], the half-maximal inhibitory concentration (IC50) (Table 1, 1% FBS) amounted to 9 nM.
Turning to `Cc1ccc(-c2nc(-c3cnccn3)no2)cc1NC(=O)c1cnc2ccccn12` [F25, N-{2-methyl-5-[3-(pyrazin-2-yl)-1,2,4-oxadiazol-5-yl]phenyl}imidazo[1,2-a]pyridine-3-carboxamide], the IC50 under setting [1] stood at 424 nM.
Regarding `Cc1ccc(-c2nc(-c3cnccc3C(F)(F)F)no2)cc1NC(=O)c1cnc2ccccn12` [F4, N-(2-methyl-5-{3-[4-(trifluoromethyl)pyridin-3-yl]-1,2,4-oxadiazol-5-yl}phenyl)imidazo[1,2-a]pyridine-3-carboxamide], the half-inhibitory concentration (IC50) (Table 1, 20% FBS (values marked *)) turned out to be 23 nM.
For the compound `Cc1ccc(Nc2noc(-c3cscn3)n2)cc1NC(=O)c1cnc2ccccn12` [F15, N-(2-methyl-5-{[5-(1,3-thiazol-4-yl)-1,2,4-oxadiazol-3-yl]amino}phenyl)imidazo[1,2-a]pyridine-3-carboxamide], under “Table 1, 1% FBS”, the IC50 is 6 nM.
Regarding `Cc1ccc(-c2noc(-c3ccc(N4CCN(C)CC4)cc3)n2)cc1NC(=O)c1cnc2ccccn12` [F54, N-(2-methyl-5-{5-[4-(4-methylpiperazin-1-yl)phenyl]-1,2,4-oxadiazol-3-yl}phenyl)imidazo[1,2-a]pyridine-3-carboxamide], the IC50 (Table 2, 1% FBS) is 370 nM.
In the case of `Cc1ccc(-c2nc(-c3ncccc3F)no2)cc1NC(=O)c1cnc2ccccn12` [F29, N-{5-[3-(3-fluoropyridin-2-yl)-1,2,4-oxadiazol-5-yl]-2-methylphenyl}imidazo[1,2-a]pyridine-3-carboxamide], the half-inhibitory concentration (IC50) under setting [1] is 205 nM.

By IC50 is commonly meant the concentration that gives 50% inhibition.
